From patent publication US10351575B2, “Bicyclic urea, thiourea, guanidine and cyanoguanidine compounds useful for the treatment of pain” (Array BioPharma Inc., priority 2012, dated 2019)

These compounds were tested against His-tagged recombinant human TrkA (Homo sapiens (Human), UniProt P04629) (assay: TrkA LanthaScreen Eu Kinase Binding Assay). Settings: averaged IC50; TR-FRET binding, 60 min, 22° C.; read-out: TrkA Enzyme IC50.
Summary of the method: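 Three-fold compound dilutions (2% DMSO final) were incubated 60 min at 22° C. with 5 nM His-TrkA cytoplasmic domain, tracer 236 (4 nM), biotinylated anti-His (2 nM) and europium streptavidin (2 nM) in MOPS pH 7.5 buffer. Emission ratio 665/615 gave percent of control; four-parameter fit yielded IC50.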

Chain of His-tagged recombinant human TrkA (P04629 440-796): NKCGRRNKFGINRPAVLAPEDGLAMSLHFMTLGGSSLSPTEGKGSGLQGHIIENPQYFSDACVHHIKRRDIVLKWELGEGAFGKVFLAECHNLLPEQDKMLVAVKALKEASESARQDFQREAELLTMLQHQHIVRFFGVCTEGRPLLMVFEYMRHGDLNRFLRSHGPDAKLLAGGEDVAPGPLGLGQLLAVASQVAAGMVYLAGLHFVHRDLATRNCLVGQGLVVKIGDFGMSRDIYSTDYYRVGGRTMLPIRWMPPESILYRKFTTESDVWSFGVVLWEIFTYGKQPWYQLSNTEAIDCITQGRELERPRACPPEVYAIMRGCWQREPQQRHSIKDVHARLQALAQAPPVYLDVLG

IC50, < 0.1 µM:
Cc1c(-c2cnn(C)c2)nn(-c2ccccc2)c1NC(=O)N[C@@H]1c2ccccc2C[C@H]1O [Example 65, 1-(1′,4-dimethyl-1-phenyl-1H,1′H-[3,4′-bipyrazol]-5-yl)-3-((1R,2R)-2-hydroxy-2,3-dihydro-1H-inden-1-yl)urea]
Cc1ncc(-c2nn(-c3ccccc3)c(NC(=O)N[C@@H]3c4ccccc4C[C@H]3O)c2C)cn1 [Example 66, 1-((1R,2R)-2-hydroxy-2,3-dihydro-1H-inden-1-yl)-3-(4-methyl-3-(2-methylpyrimidin-5-yl)-1-phenyl-1H-pyrazol-5-yl)urea]
CCOc1ncc(-c2nn(-c3ccccc3)c(NC(=O)N[C@@H]3c4ccccc4C[C@H]3O)c2C)cn1 [Example 67, 1-(3-(2-ethoxypyrimidin-5-yl)-4-methyl-1-phenyl-1H-pyrazol-5-yl)-3-((1R,2R)-2-hydroxy-2,3-dihydro-1H-inden-1-yl)urea]
COc1ncc(-c2nn(-c3ccccc3)c(NC(=O)N[C@@H]3c4ccccc4C[C@H]3O)c2C)cn1 [Example 68, 1-((1R,2R)-2-hydroxy-2,3-dihydro-1H-inden-1-yl)-3-(3-(2-methoxypyrimidin-5-yl)-4-methyl-1-phenyl-1H-pyrazol-5-yl)urea]
Cc1c(-c2cc(C)c(=O)n(C)c2)nn(-c2ccccc2)c1NC(=O)N[C@@H]1c2ccccc2C[C@H]1O [Example 69, 1-(3-(1,5-dimethyl-6-oxo-1,6-dihydropyridin-3-yl)-4-methyl-1-phenyl-1H-pyrazol-5-yl)-3-((1R,2R)-2-hydroxy-2,3-dihydro-1H-inden-1-yl)urea]
Cc1c(-c2cnn(C)c2)nn(-c2ccccc2)c1NC(=O)N[C@@H]1c2cc(Cl)ccc2C[C@H]1O [Example 70, 1-((1,2-trans)-6-chloro-2-hydroxy-2,3-dihydro-1H-inden-1-yl)-3-(1′,4-dimethyl-1-phenyl-1H,1′H-[3,4′-bipyrazol]-5-yl)urea]
Cc1ncc(-c2nn(-c3ccccc3)c(NC(=O)N[C@@H]3c4cc(Cl)ccc4C[C@H]3O)c2C)cn1 [Example 71, 1-((1,2-trans)-6-chloro-2-hydroxy-2,3-dihydro-1H-inden-1-yl)-3-(4-methyl-3-(2-methylpyrimidin-5-yl)-1-phenyl-1H-pyrazol-5-yl)urea]
Cc1c(-c2cnn(C)c2)nn(-c2ccccc2)c1NC(=O)N[C@@H]1c2ccccc2C(C)(C)[C@H]1O [Example 72]
Cc1ncc(-c2nn(-c3ccccc3)c(NC(=O)N[C@@H]3c4ccccc4C(C)(C)[C@H]3O)c2C)cn1 [Example 73, 1-((1,2-trans)-2-hydroxy-3,3-dimethyl-2,3-dihydro-1H-inden-1-yl)-3-(4-methyl-3-(2-methylpyrimidin-5-yl)-1-phenyl-1H-pyrazol-5-yl)urea]
Cc1c(OC[C@H]2CN(C)CCO2)nn(-c2ccccc2)c1NC(=O)N[C@@H]1c2ccccc2C(C)(C)C[C@H]1O [Example 74, 1-((1R,2R)-2-hydroxy-4,4-dimethyl-1,2,3,4-tetrahydronaphthalen-1-yl)-3-(4-methyl-3-(((R)-4-methylmorpholin-2-yl)methoxy)-1-phenyl-1H-pyrazol-5-yl)urea]
Cc1c(OC[C@H]2CN(C)CCO2)nn(-c2ccccc2)c1NC(=O)N[C@H]1c2ccccc2C(C)(C)C[C@@H]1O [Example 75, 1-((1S,2S)-2-hydroxy-4,4-dimethyl-1,2,3,4-tetrahydronaphthalen-1-yl)-3-(4-methyl-3-(((R)-4-methylmorpholin-2-yl)methoxy)-1-phenyl-1H-pyrazol-5-yl)urea]
Cc1c(OC[C@@H]2CN(C)CCO2)nn(-c2ccccc2)c1NC(=O)N[C@@H]1c2ccccc2C(C)(C)C[C@H]1O [Example 76, 1-((1R,2R)-2-hydroxy-4,4-dimethyl-1,2,3,4-tetrahydronaphthalen-1-yl)-3-(4-methyl-3-(((S)-4-methylmorpholin-2-yl)methoxy)-1-phenyl-1H-pyrazol-5-yl)urea]
Cc1c(OC[C@H]2CN(C)CCO2)nn(-c2ccccc2)c1NC(=O)NC1c2cc(F)c(F)cc2C(C)(C)C[C@H]1O (stereo partly drawn) [Example 77, 1-(trans-6,7-difluoro-2-hydroxy-4,4-dimethyl-1,2,3,4-tetrahydronaphthalen-1-yl)-3-(4-methyl-3-(((R)-4-methylmorpholin-2-yl)methoxy)-1-phenyl-1H-pyrazol-5-yl)urea]
Cc1c(OC[C@H]2CN(C)CCO2)nn(-c2ccccc2)c1NC(=O)NC1c2ccccc2C2(CC2)[C@@H]1O (stereo partly drawn) [Example 78, 1-(trans-2′-hydroxy-2,3′-dihydrospiro[cyclopropane-1,1′-inden]-3′-yl)-3-(4-methyl-3-(((R)-4-methylmorpholin-2-yl)methoxy)-1-phenyl-1H-pyrazol-5-yl)urea]
CNC(=O)c1nn(-c2ccccc2)c(NC(=O)N[C@@H]2c3cc(F)c(F)cc3C(C)(C)C[C@H]2O)c1C [Example 79, 5-(3-((1,2-trans)-6,7-difluoro-2-hydroxy-4,4-dimethyl-1,2,3,4-tetrahydronaphthalen-1-yl)ureido)-N,4-dimethyl-1-phenyl-1H-pyrazole-3-carboxamide]
Cc1c(-c2cnn(C)c2)nn(-c2ccccc2)c1NC(=O)N[C@@H]1c2cc(F)c(F)cc2C(C)(C)C[C@H]1O [Example 80, 1-((1,2-trans)-6,7-difluoro-2-hydroxy-4,4-dimethyl-1,2,3,4-tetrahydronaphthalen-1-yl)-3-(1′,4-dimethyl-1-phenyl-1H,1′H-[3,4′-bipyrazol]-5-yl)urea]
Cc1c(OCC2CCN(C)CC2)nn(-c2ccccc2)c1NC(=O)N[C@@H]1c2cc(F)c(F)cc2C(C)(C)C[C@H]1O [Example 81, 1-((1,2-trans)-6,7-difluoro-2-hydroxy-4,4-dimethyl-1,2,3,4-tetrahydronaphthalen-1-yl)-3-(4-methyl-3-((1-methylpiperidin-4-yl)methoxy)-1-phenyl-1H-pyrazol-5-yl)urea]
COc1nn(-c2ccccc2)c(NC(=O)N[C@@H]2c3cc(F)c(F)cc3C(C)(C)C[C@H]2O)c1C [Example 82, 1-((1,2-trans)-6,7-difluoro-2-hydroxy-4,4-dimethyl-1,2,3,4-tetrahydronaphthalen-1-yl)-3-(3-methoxy-4-methyl-1-phenyl-1H-pyrazol-5-yl)urea]
Cc1c(-c2ccc(=O)n(C)c2)nn(-c2ccccc2)c1NC(=O)N[C@@H]1c2cc(F)c(F)cc2C(C)(C)C[C@H]1O [Example 83, 1-((1,2-trans)-6,7-difluoro-2-hydroxy-4,4-dimethyl-1,2,3,4-tetrahydronaphthalen-1-yl)-3-(4-methyl-3-(1-methyl-6-oxo-1,6-dihydropyridin-3-yl)-1-phenyl-1H-pyrazol-5-yl)urea]
Cc1ncc(-c2nn(-c3ccccc3)c(NC(=O)N[C@@H]3c4cc(F)c(F)cc4C(C)(C)C[C@H]3O)c2C)cn1 [Example 84, 1-((1,2-trans)-6,7-difluoro-2-hydroxy-4,4-dimethyl-1,2,3,4-tetrahydronaphthalen-1-yl)-3-(4-methyl-3-(2-methylpyrimidin-5-yl)-1-phenyl-1H-pyrazol-5-yl)urea]
CNC(=O)c1nn(-c2ccccc2)c(NC(=O)N[C@@H]2c3ccccc3C(C)(C)[C@@H](OC)[C@H]2O)c1C [Example 85, 5-(3-((r-1,t-2,t-3)-2-hydroxy-3-methoxy-4,4-dimethyl-1,2,3,4-tetrahydronaphthalen-1-yl)ureido)-N,4-dimethyl-1-phenyl-1H-pyrazole-3-carboxamide]
